# Calls of active or inactive are those of the source. Unless noted, no cut-off for these calls is given here.
# How the values were obtained:
# [1] = molecular target: T1, Alkaline phosphatase, tissue-nonspecific isozyme (Homo sapiens, UniProt P05186); assay: TNAP enzyme activators, dose response, selectivity assay for human IAP activator project, biochemical, TNAP isozyme, human IAP uHTS hits (AID 488886); format: functional;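 note: potency of compounds raising TNAP activity as a selectivity check on IAP activators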
# T1 sequence (P05186 whole entry): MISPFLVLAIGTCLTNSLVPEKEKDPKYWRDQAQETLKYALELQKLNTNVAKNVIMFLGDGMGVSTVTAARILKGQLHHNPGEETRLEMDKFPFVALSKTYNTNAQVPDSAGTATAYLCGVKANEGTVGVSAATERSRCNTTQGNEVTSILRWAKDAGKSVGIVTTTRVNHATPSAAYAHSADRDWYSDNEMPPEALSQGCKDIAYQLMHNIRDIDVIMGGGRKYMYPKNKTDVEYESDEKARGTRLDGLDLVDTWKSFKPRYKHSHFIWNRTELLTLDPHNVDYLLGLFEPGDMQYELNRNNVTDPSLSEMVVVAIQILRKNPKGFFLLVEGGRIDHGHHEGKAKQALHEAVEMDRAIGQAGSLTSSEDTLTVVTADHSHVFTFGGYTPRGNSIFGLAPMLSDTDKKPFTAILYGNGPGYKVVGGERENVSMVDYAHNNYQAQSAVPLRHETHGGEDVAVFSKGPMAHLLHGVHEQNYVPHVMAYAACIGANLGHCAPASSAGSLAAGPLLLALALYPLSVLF
# [2] = molecular target: T2, Intestinal-type alkaline phosphatase (Homo sapiens, UniProt P09923); assay: human intestinal alkaline phosphatase activators, dose response, biochemical, luminescence, uHTS hits (AID 463120); format: functional
# T2 sequence (P09923 whole entry): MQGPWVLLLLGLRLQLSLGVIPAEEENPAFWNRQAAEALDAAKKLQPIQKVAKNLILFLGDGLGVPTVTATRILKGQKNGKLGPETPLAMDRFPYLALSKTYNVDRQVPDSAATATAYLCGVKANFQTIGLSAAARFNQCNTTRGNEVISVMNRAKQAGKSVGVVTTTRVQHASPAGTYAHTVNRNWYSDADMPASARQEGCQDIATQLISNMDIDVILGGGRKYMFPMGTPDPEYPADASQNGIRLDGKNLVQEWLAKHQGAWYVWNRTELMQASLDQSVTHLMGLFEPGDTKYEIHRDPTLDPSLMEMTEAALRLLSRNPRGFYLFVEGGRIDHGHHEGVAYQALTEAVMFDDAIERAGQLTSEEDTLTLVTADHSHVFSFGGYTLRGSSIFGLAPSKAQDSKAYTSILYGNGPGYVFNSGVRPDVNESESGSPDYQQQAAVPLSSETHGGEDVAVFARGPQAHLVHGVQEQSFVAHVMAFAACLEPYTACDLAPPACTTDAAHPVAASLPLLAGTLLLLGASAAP
# [3] = molecular target: T2, Intestinal-type alkaline phosphatase; assay: human IAP activators, dose response, biochemical, luminescent, uHTS hits, set 2 (AID 488817); format: functional;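 note: potency of activators that raise enzyme activity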
# [4] = molecular target: Intestinal-type alkaline phosphatase (Mus musculus, UniProt P24822); assay: PubChem AID 488874; format: functional
# Sequence of Intestinal-type alkaline phosphatase (Mus musculus, UniProt P24822) (P24822 whole entry): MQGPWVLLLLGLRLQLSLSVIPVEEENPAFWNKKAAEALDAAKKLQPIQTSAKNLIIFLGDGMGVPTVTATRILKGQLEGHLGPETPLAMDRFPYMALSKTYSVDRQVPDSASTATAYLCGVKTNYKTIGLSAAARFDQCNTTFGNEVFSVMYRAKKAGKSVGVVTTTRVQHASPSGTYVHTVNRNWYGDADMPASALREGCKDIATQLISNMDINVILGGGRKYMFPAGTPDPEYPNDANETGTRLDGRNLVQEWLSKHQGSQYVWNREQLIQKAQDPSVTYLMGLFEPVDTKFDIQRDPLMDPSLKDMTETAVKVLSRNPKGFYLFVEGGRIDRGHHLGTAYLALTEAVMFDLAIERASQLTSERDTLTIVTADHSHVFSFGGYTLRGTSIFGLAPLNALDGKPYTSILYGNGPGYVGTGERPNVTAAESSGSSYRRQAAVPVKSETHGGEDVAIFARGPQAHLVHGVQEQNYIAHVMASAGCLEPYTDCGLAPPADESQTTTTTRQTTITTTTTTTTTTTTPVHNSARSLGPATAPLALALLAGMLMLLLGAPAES
# SUMO E1/E2 = SUMO E1/E2 (Homo sapiens, UniProt P63279+Q9UBE0+Q9UBT2); assay: SAR analysis of SUMOylation using HTRF in an in-Vitro dose response assay. [Related pubchem assays (depositor defined):AID2006, AID2011, AID2018, AID2069, AID2658]; format: functional
# Sequence of SUMO E1/E2 (Q9UBE0 whole entry): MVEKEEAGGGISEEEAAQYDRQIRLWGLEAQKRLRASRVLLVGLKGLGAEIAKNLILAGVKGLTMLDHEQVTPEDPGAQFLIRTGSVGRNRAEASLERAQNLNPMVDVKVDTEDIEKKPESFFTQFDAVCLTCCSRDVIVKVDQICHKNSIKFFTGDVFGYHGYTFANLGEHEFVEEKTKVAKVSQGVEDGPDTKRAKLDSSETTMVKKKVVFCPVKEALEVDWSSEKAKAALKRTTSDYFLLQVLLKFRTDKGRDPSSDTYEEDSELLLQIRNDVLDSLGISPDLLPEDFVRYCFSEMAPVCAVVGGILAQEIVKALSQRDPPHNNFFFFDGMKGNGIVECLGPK
# Sequence of SUMO E1/E2 (Q9UBT2 whole entry): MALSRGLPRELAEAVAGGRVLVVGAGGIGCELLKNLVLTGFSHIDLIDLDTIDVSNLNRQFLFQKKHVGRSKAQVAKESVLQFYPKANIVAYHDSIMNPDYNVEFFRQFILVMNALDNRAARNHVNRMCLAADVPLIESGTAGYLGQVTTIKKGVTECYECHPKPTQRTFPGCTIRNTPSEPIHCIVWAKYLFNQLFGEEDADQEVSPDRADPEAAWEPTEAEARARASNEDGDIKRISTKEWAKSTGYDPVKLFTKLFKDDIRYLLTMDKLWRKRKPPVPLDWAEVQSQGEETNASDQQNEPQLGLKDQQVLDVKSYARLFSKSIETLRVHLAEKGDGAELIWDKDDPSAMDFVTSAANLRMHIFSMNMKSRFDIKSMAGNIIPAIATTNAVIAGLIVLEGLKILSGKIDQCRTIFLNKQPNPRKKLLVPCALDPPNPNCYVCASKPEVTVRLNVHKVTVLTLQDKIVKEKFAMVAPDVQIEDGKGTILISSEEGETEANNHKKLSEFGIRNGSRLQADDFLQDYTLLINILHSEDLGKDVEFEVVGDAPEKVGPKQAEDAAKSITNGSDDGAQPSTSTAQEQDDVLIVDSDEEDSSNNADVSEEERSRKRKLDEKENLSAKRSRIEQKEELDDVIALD
# Sequence of SUMO E1/E2 (P63279 whole entry): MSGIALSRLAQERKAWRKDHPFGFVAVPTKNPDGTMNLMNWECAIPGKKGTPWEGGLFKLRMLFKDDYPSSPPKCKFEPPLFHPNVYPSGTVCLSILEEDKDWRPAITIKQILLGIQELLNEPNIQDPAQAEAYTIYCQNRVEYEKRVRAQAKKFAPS
# [5] = molecular target: Lysine-specific demethylase 4C (Homo sapiens, UniProt Q9H3R0); assay: GASC-1 (JMJD2C) histone demethylase inhibitors, dose response, biochemical, DELFIA europium, cherry-picked samples (AID 488835); format: functional
# Sequence of Lysine-specific demethylase 4C (Q9H3R0 whole entry): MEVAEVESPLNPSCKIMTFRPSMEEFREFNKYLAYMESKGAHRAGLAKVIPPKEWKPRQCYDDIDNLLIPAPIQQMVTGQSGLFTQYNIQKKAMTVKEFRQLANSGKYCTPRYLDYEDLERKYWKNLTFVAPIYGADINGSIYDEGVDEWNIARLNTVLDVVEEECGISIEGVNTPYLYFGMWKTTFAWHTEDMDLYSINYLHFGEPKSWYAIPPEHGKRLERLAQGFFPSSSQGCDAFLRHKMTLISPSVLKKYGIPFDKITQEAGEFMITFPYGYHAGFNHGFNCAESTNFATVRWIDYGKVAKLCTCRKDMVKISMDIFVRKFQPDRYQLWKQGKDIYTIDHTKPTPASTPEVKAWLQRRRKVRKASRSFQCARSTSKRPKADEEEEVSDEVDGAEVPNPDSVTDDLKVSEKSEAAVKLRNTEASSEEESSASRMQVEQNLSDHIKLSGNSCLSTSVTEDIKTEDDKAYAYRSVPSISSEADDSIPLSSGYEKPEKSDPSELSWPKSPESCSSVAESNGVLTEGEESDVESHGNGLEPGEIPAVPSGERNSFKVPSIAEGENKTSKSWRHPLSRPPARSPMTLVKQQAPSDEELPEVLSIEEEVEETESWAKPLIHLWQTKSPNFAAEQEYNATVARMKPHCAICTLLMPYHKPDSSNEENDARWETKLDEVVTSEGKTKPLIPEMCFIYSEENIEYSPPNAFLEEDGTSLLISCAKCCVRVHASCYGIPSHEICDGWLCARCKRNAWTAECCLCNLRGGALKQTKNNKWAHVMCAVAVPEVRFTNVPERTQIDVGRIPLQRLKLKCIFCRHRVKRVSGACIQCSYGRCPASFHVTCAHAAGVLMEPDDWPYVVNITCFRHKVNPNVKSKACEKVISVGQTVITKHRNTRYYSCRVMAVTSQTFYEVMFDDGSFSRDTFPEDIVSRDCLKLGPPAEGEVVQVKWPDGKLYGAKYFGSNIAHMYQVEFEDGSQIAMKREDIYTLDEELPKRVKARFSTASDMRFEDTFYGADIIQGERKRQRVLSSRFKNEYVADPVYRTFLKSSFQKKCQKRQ
# Hexokinase-1 = molecular target: T3, Hexokinase-1 (Homo sapiens, UniProt P19367); assay: hexokinase 1 activators, dose response, selectivity assay for HKDC1 activator project, biochemical (AID 504762); format: functional
# T3 sequence (P19367 whole entry): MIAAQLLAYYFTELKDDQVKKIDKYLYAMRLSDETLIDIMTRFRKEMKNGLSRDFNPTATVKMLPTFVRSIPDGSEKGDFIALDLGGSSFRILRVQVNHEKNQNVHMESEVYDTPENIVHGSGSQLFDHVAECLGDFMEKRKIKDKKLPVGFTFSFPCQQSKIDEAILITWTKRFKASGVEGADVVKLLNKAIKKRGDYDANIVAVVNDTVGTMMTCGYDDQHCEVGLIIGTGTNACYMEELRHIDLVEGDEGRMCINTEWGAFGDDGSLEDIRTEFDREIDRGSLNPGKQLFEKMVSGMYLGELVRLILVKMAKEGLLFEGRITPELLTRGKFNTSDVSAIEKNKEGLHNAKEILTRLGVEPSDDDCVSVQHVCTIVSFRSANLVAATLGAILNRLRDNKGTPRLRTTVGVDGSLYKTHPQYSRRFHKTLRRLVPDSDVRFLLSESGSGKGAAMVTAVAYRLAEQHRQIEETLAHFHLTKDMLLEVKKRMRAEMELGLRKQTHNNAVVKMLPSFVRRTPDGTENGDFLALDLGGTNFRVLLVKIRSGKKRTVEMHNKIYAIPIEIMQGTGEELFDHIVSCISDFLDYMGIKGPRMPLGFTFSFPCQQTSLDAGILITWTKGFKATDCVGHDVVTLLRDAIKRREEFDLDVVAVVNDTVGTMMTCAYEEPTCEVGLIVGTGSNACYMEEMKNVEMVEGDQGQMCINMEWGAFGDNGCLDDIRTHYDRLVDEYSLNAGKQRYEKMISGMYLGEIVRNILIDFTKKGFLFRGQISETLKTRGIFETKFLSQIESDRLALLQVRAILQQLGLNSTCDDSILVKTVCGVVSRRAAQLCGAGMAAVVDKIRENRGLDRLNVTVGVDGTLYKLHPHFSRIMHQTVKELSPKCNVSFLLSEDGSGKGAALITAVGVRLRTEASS
# Hexokinase HKDC1 = molecular target: T4, Hexokinase HKDC1 (Homo sapiens, UniProt Q2TB90); assay: HKDC1 hexokinase activators, dose response, biochemical, W721R variant (AID 504730); format: functional
# T4 sequence (Q2TB90 whole entry): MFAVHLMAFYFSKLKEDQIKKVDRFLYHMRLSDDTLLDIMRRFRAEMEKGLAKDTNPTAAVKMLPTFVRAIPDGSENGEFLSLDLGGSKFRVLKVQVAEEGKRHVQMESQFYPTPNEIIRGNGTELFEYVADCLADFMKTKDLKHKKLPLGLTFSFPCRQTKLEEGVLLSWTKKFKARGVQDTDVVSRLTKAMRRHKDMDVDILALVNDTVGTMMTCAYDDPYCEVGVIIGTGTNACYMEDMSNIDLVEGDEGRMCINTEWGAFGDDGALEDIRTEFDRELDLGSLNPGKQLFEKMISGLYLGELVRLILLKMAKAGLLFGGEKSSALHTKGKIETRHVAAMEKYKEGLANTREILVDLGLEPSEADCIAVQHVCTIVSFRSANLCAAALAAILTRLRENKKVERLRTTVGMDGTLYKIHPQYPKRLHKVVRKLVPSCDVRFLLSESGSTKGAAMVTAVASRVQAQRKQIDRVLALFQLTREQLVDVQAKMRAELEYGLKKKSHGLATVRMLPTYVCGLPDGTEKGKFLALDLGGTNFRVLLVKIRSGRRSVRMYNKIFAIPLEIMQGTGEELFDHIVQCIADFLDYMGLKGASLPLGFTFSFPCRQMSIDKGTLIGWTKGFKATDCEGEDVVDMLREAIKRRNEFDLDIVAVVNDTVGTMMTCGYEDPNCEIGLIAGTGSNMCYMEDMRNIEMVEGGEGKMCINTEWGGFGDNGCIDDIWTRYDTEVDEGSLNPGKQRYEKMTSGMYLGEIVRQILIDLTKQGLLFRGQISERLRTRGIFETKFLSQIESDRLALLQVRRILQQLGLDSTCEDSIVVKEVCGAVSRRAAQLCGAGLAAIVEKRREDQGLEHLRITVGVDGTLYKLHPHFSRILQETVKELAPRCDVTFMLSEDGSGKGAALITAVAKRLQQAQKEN
# Beta-galactosidase = Beta-galactosidase (Escherichia coli, UniProt Q8VNN2); assay: PubChem AID 485352; format: functional
# [6] = molecular target: Lysine-specific demethylase 4A (Homo sapiens, UniProt O75164); assay: JMJD2A histone demethylase inhibitors, dose response, selectivity assay for GASC-1 inhibitor project, biochemical, DELFIA europium, cherry-picked samples (AID 488840)
# [7] = molecular target: T5, Zinc finger protein mex-5 (Caenorhabditis elegans, UniProt Q9XUB2); assay: MEX-5/TCR-2 RNA interaction inhibitors, dose response, biochemical, C. elegans, fluorescence polarization (AID 1960)
# T5 sequence (Q9XUB2 whole entry): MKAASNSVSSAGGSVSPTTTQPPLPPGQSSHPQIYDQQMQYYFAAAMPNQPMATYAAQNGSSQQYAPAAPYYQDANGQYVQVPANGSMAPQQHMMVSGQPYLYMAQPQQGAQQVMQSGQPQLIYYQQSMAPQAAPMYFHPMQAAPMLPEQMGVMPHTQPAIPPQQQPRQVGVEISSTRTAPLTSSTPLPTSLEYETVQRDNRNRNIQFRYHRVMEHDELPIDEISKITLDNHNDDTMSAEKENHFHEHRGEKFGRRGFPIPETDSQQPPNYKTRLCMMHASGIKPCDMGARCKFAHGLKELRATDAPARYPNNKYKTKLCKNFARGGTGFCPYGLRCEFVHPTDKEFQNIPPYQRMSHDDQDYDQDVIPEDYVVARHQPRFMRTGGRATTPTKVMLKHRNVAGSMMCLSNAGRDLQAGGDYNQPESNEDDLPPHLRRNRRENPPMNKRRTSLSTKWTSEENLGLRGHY
# [8] = molecular target: T6, Type-1 angiotensin II receptor (Homo sapiens, UniProt P30556); assay: AT1 receptor antagonists, dose response, selectivity assay for APJ receptor antagonist project, cell-based, uHTS hits (AID 463214); format: functional;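 note: antagonist potency against angiotensin II stimulated AT1 response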
# T6 sequence (P30556 whole entry): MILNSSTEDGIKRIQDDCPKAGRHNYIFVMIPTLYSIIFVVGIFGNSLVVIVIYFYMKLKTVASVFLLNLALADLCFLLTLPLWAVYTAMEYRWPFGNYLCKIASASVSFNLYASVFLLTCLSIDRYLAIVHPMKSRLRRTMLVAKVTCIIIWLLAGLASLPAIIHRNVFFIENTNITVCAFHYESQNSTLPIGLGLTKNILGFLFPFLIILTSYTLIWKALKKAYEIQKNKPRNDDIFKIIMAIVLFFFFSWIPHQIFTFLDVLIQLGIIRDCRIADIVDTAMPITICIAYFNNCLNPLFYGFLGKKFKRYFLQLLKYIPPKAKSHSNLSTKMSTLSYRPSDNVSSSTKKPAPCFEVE
# [9] = molecular target: T7, RNA-binding protein pos-1 (Caenorhabditis elegans, UniProt G5EF15); assay: inhibitors of POS-1/mex-3 RNA binding, dose response, biochemical, fluorescence polarization (AID 1964);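 note: purified POS-1 fused to maltose binding protein made in E. coli; potency of compounds blocking POS-1 binding to fluorescent RNA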
# T7 sequence (G5EF15 whole entry): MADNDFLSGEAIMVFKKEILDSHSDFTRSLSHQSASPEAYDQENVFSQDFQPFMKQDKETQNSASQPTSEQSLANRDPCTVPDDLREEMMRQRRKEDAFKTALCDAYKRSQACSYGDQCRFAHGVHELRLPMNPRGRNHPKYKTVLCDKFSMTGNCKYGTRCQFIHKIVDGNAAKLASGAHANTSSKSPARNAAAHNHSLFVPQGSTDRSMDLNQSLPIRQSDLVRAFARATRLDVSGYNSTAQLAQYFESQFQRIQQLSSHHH
# [10] = M. tuberculosis growth inhibition, HTS (AID 449762); format: functional
# [11] = microbe, parasite or virus in culture; format: functional; details: Mycobacterium tuberculosis
# Cytochrome P450 3A4 = Cytochrome P450 3A4 (Homo sapiens, UniProt P08684);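 note: CYP3A4 tested as one member of a cytochrome P450 panel screen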
# Sequence of Cytochrome P450 3A4 (P08684 whole entry): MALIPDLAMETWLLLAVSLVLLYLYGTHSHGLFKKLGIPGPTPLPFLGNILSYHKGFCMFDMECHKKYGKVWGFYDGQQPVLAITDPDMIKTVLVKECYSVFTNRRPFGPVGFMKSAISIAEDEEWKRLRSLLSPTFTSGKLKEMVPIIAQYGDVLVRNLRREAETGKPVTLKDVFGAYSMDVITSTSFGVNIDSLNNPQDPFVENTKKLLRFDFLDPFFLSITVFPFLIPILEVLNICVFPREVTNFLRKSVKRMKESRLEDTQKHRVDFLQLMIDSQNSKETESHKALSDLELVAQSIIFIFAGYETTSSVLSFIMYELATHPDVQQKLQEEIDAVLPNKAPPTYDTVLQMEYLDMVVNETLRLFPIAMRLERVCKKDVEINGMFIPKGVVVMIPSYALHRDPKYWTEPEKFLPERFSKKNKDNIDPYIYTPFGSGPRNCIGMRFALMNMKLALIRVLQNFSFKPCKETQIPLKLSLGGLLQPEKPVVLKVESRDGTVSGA
# Mu-type opioid receptor [12] = molecular target: T8, Mu-type opioid receptor (Homo sapiens, UniProt P35372); assay: SAR Analysis of Antagonists of the MOR Receptor using an Image-Based Assay - Set 2. [Related pubchem assays (depositor defined):AID1777, AID1785, AID1786, AID1966, AID2133, AID2136, AID2284, AID2285, AID2420]; format: functional
# T8 sequence (P35372 whole entry): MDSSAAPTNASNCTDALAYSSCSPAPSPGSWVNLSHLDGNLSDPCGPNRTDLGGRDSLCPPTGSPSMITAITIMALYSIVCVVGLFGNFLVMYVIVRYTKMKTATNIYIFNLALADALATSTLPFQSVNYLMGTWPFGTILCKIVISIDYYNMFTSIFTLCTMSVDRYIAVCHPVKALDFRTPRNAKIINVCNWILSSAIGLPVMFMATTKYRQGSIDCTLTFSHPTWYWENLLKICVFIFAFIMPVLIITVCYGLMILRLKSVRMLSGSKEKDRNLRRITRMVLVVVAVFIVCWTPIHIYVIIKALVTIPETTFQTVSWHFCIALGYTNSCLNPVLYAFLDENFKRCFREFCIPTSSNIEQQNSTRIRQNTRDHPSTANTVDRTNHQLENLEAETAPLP
# [13] = molecular target: T9, Delta-type opioid receptor (Homo sapiens, UniProt P41143); assay: SAR Analysis of Agonists of the DOR Receptor using an Image-Based Assay - Set 2. [Related pubchem assays (depositor defined):AID1777, AID1785, AID1786, AID1966, AID2133, AID2136, AID2284, AID2285, AID2370]; format: functional
# T9 sequence (P41143 whole entry): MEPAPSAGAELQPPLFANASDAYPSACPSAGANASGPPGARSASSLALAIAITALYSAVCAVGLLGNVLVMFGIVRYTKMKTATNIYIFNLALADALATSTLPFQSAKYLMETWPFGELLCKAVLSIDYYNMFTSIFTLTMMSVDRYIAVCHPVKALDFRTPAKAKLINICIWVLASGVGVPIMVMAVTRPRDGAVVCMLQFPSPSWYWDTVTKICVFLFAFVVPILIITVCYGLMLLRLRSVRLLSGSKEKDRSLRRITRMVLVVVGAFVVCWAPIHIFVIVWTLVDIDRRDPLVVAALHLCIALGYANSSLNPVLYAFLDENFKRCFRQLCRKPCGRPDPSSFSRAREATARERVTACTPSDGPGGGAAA
# [14] = molecular target: T10, Kappa-type opioid receptor (Homo sapiens, UniProt P41145); assay: SAR analysis of Agonists of the Kappa Opioid Receptor (KOR) using an Image-Based Assay - Set 2. [Related pubchem assays (depositor defined):AID1777, AID1786, AID1966, AID2133, AID2136, AID2284, AID2285, AID2359]; format: functional
# T10 sequence (P41145 whole entry): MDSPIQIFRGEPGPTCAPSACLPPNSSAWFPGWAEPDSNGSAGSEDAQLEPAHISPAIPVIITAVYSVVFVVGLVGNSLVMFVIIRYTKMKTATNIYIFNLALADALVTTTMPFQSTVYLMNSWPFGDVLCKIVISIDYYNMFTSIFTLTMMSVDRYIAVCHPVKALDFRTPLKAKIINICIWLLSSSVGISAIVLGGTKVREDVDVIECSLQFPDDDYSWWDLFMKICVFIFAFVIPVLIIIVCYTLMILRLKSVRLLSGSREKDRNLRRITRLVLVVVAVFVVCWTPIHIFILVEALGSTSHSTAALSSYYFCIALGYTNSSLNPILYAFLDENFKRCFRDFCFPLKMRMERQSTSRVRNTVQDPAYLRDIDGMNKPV
# [15] = molecular target: T10, Kappa-type opioid receptor; assay: SAR analysis of Antagonists of the Kappa Opioid Receptor (KOR) using an Image-Based Assay - Set 2. [Related pubchem assays (depositor defined):AID1777, AID1785, AID1786, AID1966, AID2133, AID2136, AID2284, AID2285, AID2348]; format: functional
# [16] = molecular target: T9, Delta-type opioid receptor; assay: SAR Analysis of Antagonists of the DOR Receptor using an Image-Based Assay - Set 2. [Related pubchem assays (depositor defined):AID1777, AID1785, AID1786, AID1966, AID2133, AID2136, AID2284, AID2285, AID2357]; format: functional
# Mu-type opioid receptor [17] = molecular target: T8, Mu-type opioid receptor; assay: SAR Analysis of Agonists of the MOR Receptor using an Image-Based Assay - Set 2. [Related pubchem assays (depositor defined):AID1777, AID1785, AID1786, AID1966, AID2133, AID2136, AID2284, AID2285, AID2352]; format: functional
# [18] = molecular target: T10, Kappa-type opioid receptor; assay: SAR analysis of small molecule agonists of the kappa opioid receptor via a luminescent beta-arrestin assay - Set 2. [Related pubchem assays (depositor defined):AID1777, AID1785, AID1786, AID1966, AID2133, AID2136, AID2284, AID449737]; format: functional
# Candida albicans = assay: fluconazole resistance reversal in C. albicans, dose response, CaCi-2 strain, Alamar Blue, dry powder, set 4 (AID 488943); format: functional, organism-based
structure (smiles),measurement,setting,value
O=C(Cc1ccc(Cl)c(Cl)c1)NNC(=S)NCC1CCCO1 (centres undefined),EC50,[1],20.2 µM (active)
same,EC50,[2],14.3 µM (active)
same,EC50,[3],17.5 µM (active)
same,IC50,[4],49.6 µM (active)
S=c1[nH]nc(-c2cc(-c3ccccc3)[nH]n2)n1N=Cc1ccc(Br)s1,IC50,SUMO E1/E2,11.3 µM (active)
CC(=O)C1=C(c2ccccc2)N(C(C)=O)n2c(C)nnc2S1,AC50,[5],0.8 µM (active)
same,EC50,Hexokinase-1,20.8 µM (inactive)
same,EC50,Hexokinase HKDC1,26 µM (inactive)
same,EC50,Beta-galactosidase,16.8 µM (active)
same,AC50,[6],56.3 µM (active)
same,EC50,[7],10.7 µM (active)
same,IC50,[8],11.3 µM (active)
same,EC50,[9],191 µM (active)
COC(=O)C(Cc1ccc(OC(=O)c2ccc(C(F)(F)F)cc2)cc1)N1Cc2ccccc2C1=O (centres undefined),IC50,[10],> 100 µM (active)
same,CC50,[11],37.4 µM (active)
same,AC50,Cytochrome P450 3A4,inconclusive
COc1ccc(CSc2nnc(-c3ccccn3)n2Cc2cccs2)cc1,IC50,Mu-type opioid receptor [12],> 32 µM (inactive)
same,EC50,[13],> 32 µM (inactive)
same,EC50,[14],5.98 µM (active)
same,IC50,[15],> 32 µM (inactive)
same,IC50,[16],> 32 µM (inactive)
same,EC50,Mu-type opioid receptor [17],> 32 µM (inactive)
same,EC50,[18],9.61 µM (active)
Clc1ccc2c(N3CCNCC3)ccnc2c1,AC50,Candida albicans,21.7 µM (active)
